Columns and labels:
[1] = system: opiate blocker; withdrawal symptoms; assay: Naltrexone given after the end of buprenorphine treatment (precipitated withdrawal)
Method: Since naltrexone is administered following the cessation of narcotic, there can be no residual narcotic in a patient's system, otherwise the naltrexone will push the patient into withdrawal. Therefore, the patient must wait about a week before to start naltrexone, even with extremely low doses, doses that may be considered to be homeopathic but are high enough to cause withdrawal symptoms if the narcotic is not fully washed out.

smoking cessation = settings: very large reduction steps; cited from earlier work
[2] = system: physical dependence to opioids and related substances; assay: Multidose tapering of buprenorphine in opiate-dependent patients (cessation success, withdrawal symptoms); format: in vivo; settings: for Successful, percent of total patients: calculated blood level reduction no greater than 5% from previous period
From the text: After several years of clinical experience in the use of buprenorphine, it became clear that a single dose in mg of buprenorphine given over a short period of time would not lead to a drug-free status. […]. If the dose is reduced rapidly, the patient reacts with both physical and emotional symptoms of withdrawal. By reducing the dose slowly, the patients experience a period where there is little or no decline in biologically available narcotic and thus feel more secure as they are not experiencing even minor withdrawal symptoms.
Commercially available buprenorphine (Suboxone® & Subutex®) is available in strengths of 8.0 mg as well as 2.0 mg. However, that these medications would not suffice for a successful program, because the 2.0 mg dose was too large and too steep cut-off. […]. During inception of development of multidose treatment that led to the current invention, and using the then current state of art, buprenorphine troches for the treatment (not maintenance) of opiate dependence was used on a patient that was a person who was using I.V. 5-8 bags of heroin daily. They were started on 3 mg of buprenorphine and remained on this dose for three days. After a two day period without opiates, an attempt was made to administer the opiate blocker naltrexone which was intended to assure that a person is indeed drug free and remained so.
Many alterations in treatment protocols to prevent withdrawal were made. The alterations included a greater variety of doses ranging from 8.0 to 4.0 mg administered in a deceasing amount over time. At first the dose strengths varied from 8.0 mg administered once daily with a daily reduction of 2.0 mg until to 4.0 mg, and then to 2.0 mg.
A 6.0 mg dose was then added to the protocol. This lengthened the withdrawal period from three days to seven. This change was occasioned by the observation that the drop from 8.0 mg to 4.0 mg was all too frequently accompanied by a significant return of withdrawal symptoms and, at times, a return to use.
Despite these alterations in the treatment protocol the results were still not what were expected. The observation was made that a cut-off of 2.0 mg would cause a return of withdrawal symptoms within 24 hrs and thus the likelihood of a return to drug use before naltrexone could be started. […] As a result, a 1.0 mg lozenges were administered
A fractional buprenorphine dose was administered to reduce the severity of withdrawal symptoms. This strategy was in response to ongoing withdrawal symptoms following the “conclusion” of withdrawal or a “final” 3.0 mg dose of buprenorphine. To mitigate the withdrawal symptoms, a dose of 1.5 mg of buprenorphine was given to the patient. This particular treatment was unsuccessful as the ongoing withdrawal symptoms were too difficult for the patient who relapsed as a result.
Stepwise increments were amended to proceed in the sub 1.0 mg dose range. The taper at this time was 1.0 mg, 0.75 mg, 0.5 mg, to 0.25 mg then a four day period of blank troches followed by an upward taper of troches with naltrexone going from 0.5 mg of naltrexone to 10.0 mg of naltrexone. With serial doses of 0.25 mg of buprenorphine many patients continued to report perceptible and, in some cases, intolerable withdrawal symptoms.
As a result of the ongoing objective patient observations and patient's subjective complaints of withdrawal symptoms, a 0.1 mg dose was introduced. Additionally, a dose of 1.5 mg as well as a dose of 0.75 mg was added to the dose progression series. Although withdrawal complaints were limited, they were still present, and generally in the late phases of treatment. […] A strategy of 0.1 mg decreases in dose was implemented when the patients reached the 4.0 mg dose range (i.e., 2.0 mg twice a day) and 0.01 mg deceases in the below 1.0 mg range. The effect of this change also to extended the withdrawal period to about six to eight weeks from four weeks. […]

O=C1CC[C@@]2(O)[C@H]3Cc4ccc(O)c5c4[C@@]2(CCN3CC2CC2)[C@H]1O5 [naltrexone]
withdrawal symptoms caused by naltrexone ([1]; 12.5 mg, up to five days after the end of buprenorphine treatment): causes a return of withdrawal symptoms
withdrawal symptoms caused by naltrexone ([1]; given after a two day period without opiates following 3 mg buprenorphine for three days): severe withdrawal symptoms

CN1CCCC1c1cccnc1 (stereo not shown) [nicotine]
clinical success rates over placebo (smoking cessation): 6-12%

buprenorphine hydrochloride
Successful, percent of total patients ([2]; 1-30 treatment days): 50.7%
Successful, number of patients ([2]; 1-30 treatment days, total 75): 38
Successful, percent of total patients ([2]; 31-60 treatment days): 75.0%
Successful, number of patients ([2]; 31-60 treatment days, total 52): 39
Successful, percent of total patients ([2]; 61-90 treatment days): 90.5%
Successful, number of patients ([2]; 61-90 treatment days, total 21): 19
success rates in achieving freedom from physical dependence to opioids and related substances ([2]; specific gradually decreasing but measured doses of replacement narcotic): ≥ 90%

Source: US8163731B2, “Method and dosage regimens for eliminating a chemical substance in blood” (Rhodes Technologies, priority 2008, dated 2012)
